Test results from the NIST ThermoML archive (doi:10.1016/j.jct.2015.02.020).

What was measured:
[1] = xn = mol fraction of the nth substance listed; conditions: 101.3 kPa, Liquid; for viscosity: Falling or rolling sphere viscometry; for speed of sound: Sing-around technique in a fixed-path interferometer; for mass density: Vibrating tube method
[2] = refractive index (Na D-line) (dimensionless); xn = mol fraction of the nth substance listed; conditions: 101.3 kPa, Liquid, Standard Abbe refractometry

CC[n+]1cccc(C)c1.O=S(=O)([N-]S(=O)(=O)C(F)(F)F)C(F)(F)F + O
Conditions	mass density, [1] [kg/m3]	refractive index, [2]	speed of sound, [1] [m/s]	viscosity, [1] [mPa·s]
298.15 K, x2 = 0.131	1481.91	1.44197	1262.7	29.75
298.15 K, x2 = 0.189	1479.39	1.44144	1264.6	27.2
298.15 K, x2 = 0.266	1473.92	1.44013	1268.3	23.89
303.15 K, x2 = 0.131	1477.02	1.44057	1251.8	24.96
303.15 K, x2 = 0.189	1474.49	1.44005	1253.4	22.92
303.15 K, x2 = 0.266	1468.97	1.43917	1257.1	20.03
308.15 K, x2 = 0.131	1472.16	1.4391	1240.8	21.21
308.15 K, x2 = 0.189	1469.6	1.43852	1242.3	19.52
308.15 K, x2 = 0.266	1464.04	1.43769	1246	17.09
313.15 K, x2 = 0.131	1467.31	1.43766	1229.9	18.24
313.15 K, x2 = 0.189	1464.73	1.43716	1231.4	16.84
313.15 K, x2 = 0.266	1459.12	1.43624	1234.9	14.62
318.15 K, x2 = 0.131	1462.48	1.43623	1219.1	15.79
318.15 K, x2 = 0.189	1459.88	1.43573	1220.5	14.61
318.15 K, x2 = 0.266	1454.22	1.43533	1224	12.74
323.15 K, x2 = 0.131	1457.66	1.4348	1208.4	13.84
323.15 K, x2 = 0.189	1455.04	1.43425	1209.5	12.88
323.15 K, x2 = 0.266	1449.34	1.43385	1213.2	11.23
328.15 K, x2 = 0.131	1452.87	1.43338	1197.8	12.27
328.15 K, x2 = 0.189	1450.22	1.43281	1199.2	11.44
328.15 K, x2 = 0.266	1444.47	1.43261	1202.4	9.965
333.15 K, x2 = 0.131	1448.09	1.43195	1187.3	10.95
333.15 K, x2 = 0.189	1445.42	1.43142	1188.6	10.21
333.15 K, x2 = 0.266	1439.61	1.43119	1191.8	8.892
338.15 K, x2 = 0.131	1443.32	1.43052	1176.9	9.815
338.15 K, x2 = 0.189	1440.63	1.42999	1178.2	9.153
338.15 K, x2 = 0.266	1434.78	1.42974	1181.2	7.977
343.15 K, x2 = 0.131	1438.57	1.42911	1166.6	8.833
343.15 K, x2 = 0.189	1435.85	1.42853	1167.8	8.239
343.15 K, x2 = 0.266	1429.95	1.42835	1170.8	7.182

CC[n+]1ccccc1C.O=S(=O)([N-]S(=O)(=O)C(F)(F)F)C(F)(F)F + O
Conditions	mass density, [1] [kg/m3]	refractive index, [2]	speed of sound, [1] [m/s]	viscosity, [1] [mPa·s]
298.15 K, x2 = 0.124	1498.88	1.44635	1301.6	54.52
298.15 K, x2 = 0.172	1496.43	1.44579	1302.6	48.93
298.15 K, x2 = 0.256	1490.94	1.44479	1304.6	40.5
303.15 K, x2 = 0.124	1493.99	1.44489	1290.2	44.3
303.15 K, x2 = 0.172	1491.53	1.44442	1291.2	39.95
303.15 K, x2 = 0.256	1485.99	1.44323	1293.2	32.89
308.15 K, x2 = 0.124	1489.12	1.44343	1279	36.58
308.15 K, x2 = 0.172	1486.64	1.44289	1279.9	33.11
308.15 K, x2 = 0.256	1481.06	1.44178	1282.2	27.38
313.15 K, x2 = 0.124	1484.26	1.44195	1267.9	30.63
313.15 K, x2 = 0.172	1481.77	1.44136	1268.8	27.84
313.15 K, x2 = 0.256	1476.14	1.44044	1271	23.19
318.15 K, x2 = 0.124	1479.43	1.4405	1256.9	25.97
318.15 K, x2 = 0.172	1476.91	1.43988	1257.8	23.68
318.15 K, x2 = 0.256	1471.25	1.43914	1259.9	19.85
323.15 K, x2 = 0.124	1474.61	1.43906	1246	22.27
323.15 K, x2 = 0.172	1472.08	1.43853	1246.8	20.38
323.15 K, x2 = 0.256	1466.37	1.43787	1248.8	17.19
328.15 K, x2 = 0.124	1469.81	1.43777	1235.3	19.27
328.15 K, x2 = 0.172	1467.26	1.4372	1236	17.72
328.15 K, x2 = 0.256	1461.5	1.43662	1237.9	14.95
333.15 K, x2 = 0.124	1465.03	1.43633	1224.6	16.83
333.15 K, x2 = 0.172	1462.46	1.43586	1225.3	15.44
333.15 K, x2 = 0.256	1456.65	1.43532	1227.1	13.17
338.15 K, x2 = 0.124	1460.28	1.43494	1214	14.77
338.15 K, x2 = 0.172	1457.68	1.43447	1214.6	13.67
338.15 K, x2 = 0.256	1451.82	1.43398	1216.3	11.71
343.15 K, x2 = 0.124	1455.53	1.43355	1203.5	13.13
343.15 K, x2 = 0.172	1452.91	1.43315	1204.1	12.18
343.15 K, x2 = 0.256	1447.01	1.43279	1205.6	10.47
